Measurements reported in US20240336897A1, “COMPOSITIONS AND METHODS FOR CELL REPROGRAMMING” (CORNELL UNIVERSITY, priority 2021, published 2024).

Legend:
biPSCs [1] = assay: Base medium lacking individual inhibitors for GSK3β, MEK1/2 or TGFβ/activin/nodal; details: GMTi base medium lacking this inhibitor
Protocol: (§1) The biPSC colonies emerging from reprogramming trials were manually picked, dissociated into single cells using TrypLE™ (ThermoFisher) and plated on iMEFs in GMTi medium. For passaging, confluent cultures of biPSCs were rinsed once with PBS and incubated with TrypLE for 5 minutes. Cells were then collected in fibroblast medium, and centrifuged at 200×rcf for 5 minutes. The pellet was then resuspended in GMTi medium for plating on iMEFs. Passaging of biPSCs was performed repeatedly (every 3-4 days), with concurrent examination and imaging of morphology, growth characteristics and expression of PSC markers. […] Base medium conditions lacking individual inhibitors for GSK3β, MEK1/2 or TGFβ/activin/nodal were also prepared and tested for their ability to sustain pluripotent cultures. All cultures were maintained in a humidified incubator at 37° C. under an atmosphere of 5% CO2.

biPSCs [2] = details: MEK1/2 and GSK3B inhibitors used together; cited from earlier work
biPSCs [3] = assay: Sustenance of biPSCs using specific pathway inhibition (GMTi medium): repeated passaging, morphology; details: at least over a few passages, cell morphology
Protocol: as §1

Cc1cccc(-c2nn(C(=S)Nc3ccccc3)cc2-c2ccnc3ccccc23)n1 [A83-01]
effect of removing the single inhibitor from biPSC cultures (biPSCs [1]): resulted in differentiation

Cc1c[nH]c(-c2cnc(NCCNc3ccc(C#N)cn3)nc2-c2ccc(Cl)cc2Cl)n1 [CHIR99021]
effect on biPSCs (biPSCs [2]): suspend biPSCs in a pluripotent state, but without the ability to proliferate
effect of removing the single inhibitor from biPSC cultures (biPSCs [1]): resulted in differentiation

O=C(NOC[C@H](O)CO)c1ccc(F)c(F)c1Nc1ccc(I)cc1F [PD0325901]
effect on biPSCs (biPSCs [2]): suspend biPSCs in a pluripotent state, but without the ability to proliferate

IL6: interleukin 6, leukemia inhibitory factor family member
effect of excluding the factor from the GMTi medium on biPSCs (biPSCs [3]): did not negatively affect biPSCs

LIF: human leukemia inhibitory factor
effect of excluding the factor from the GMTi medium on biPSCs (biPSCs [3]): did not negatively affect biPSCs
